Measured values as given in PubChem BioAssay (NCI).
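Dose response: 5 concentrations. Exposure: 48 h. Format: 96-well plates. Endpoint: linear interpolation; highest concentration if not reached. GI50: concentration for 50% inhibition of growth. TGI: total growth inhibition.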

Legend:
Experiment in all cases: NCI anticancer screen, dose series, 48 h
SN12C renal = test system: SN12C renal
SW-620 colon = test system: SW-620 colon
EKVX NSCLC = test system: EKVX NSCLC
MALME-3M melanoma = test system: MALME-3M melanoma
HT29 colon = test system: HT29 colon
IGROV1 ovarian = test system: IGROV1 ovarian
U251 CNS = test system: U251 CNS
COLO 205 colon = test system: COLO 205 colon
K-562 leukemia = test system: K-562 leukemia
PC-3 prostate = test system: PC-3 prostate

Row | Compound | GI50 (SN12C renal) [µM] | TGI (SN12C renal) [µM] | GI50 (SW-620 colon) [µM] | TGI (SW-620 colon) [µM] | GI50 (EKVX NSCLC) [µM] | TGI (EKVX NSCLC) [µM] | GI50 (MALME-3M melanoma) [µM] | TGI (MALME-3M melanoma) [µM] | GI50 (HT29 colon) [µM] | TGI (HT29 colon) [µM] | GI50 (IGROV1 ovarian) [µM] | TGI (IGROV1 ovarian) [µM] | GI50 (U251 CNS) [µM] | TGI (U251 CNS) [µM] | GI50 (COLO 205 colon) [µM] | TGI (COLO 205 colon) [µM] | GI50 (K-562 leukemia) [µM] | TGI (K-562 leukemia) [µM] | GI50 (PC-3 prostate) [µM] | TGI (PC-3 prostate) [µM]
1 | COc1cc(/C=C/c2cc(O)c(C(C)=O)c(O)c2)cc2c1O[C@]1(C)CC[C@@H](O)C(C)(C)[C@H]1C2 | 9.07 | 72.8 | 5.52 | > 100 | 13.1 | 72.9 | 7.35 | 44.2 | 4.05 | > 100 | 6.44 | 69 | 3.71 | > 100 | 16.1 | 68.3 | 3.64 | > 100 | 3.75 | > 100
2 | CN1CCN(CCCn2c(=O)c3sc4ncccc4c3n3nnc(-c4ccccc4)c23)CC1 | 7.2 | 14.2 | 5.34 | 11.5 | 6.47 | 13.3 | 9.41 | 17.9 | 2.89 | 9.54 | 5.93 | 13.8 | 5.21 | 11.2 | 7.35 | 14.6 | 0.881 | 2.05 | 6.27 | 13.4
3 | CC(C)[C@H]1COC(=O)N1[C@@H]1C(=O)N([C@@H](CCC(=O)N2CCN(C3CCCC3)CC2)C(=O)N[C@@H]2CCCc3ccccc32)[C@@H]1/C=C/c1cccc(Br)c1 | 2.27 | 5.51 | 1.95 | 4.57 | 3.01 | 15.2 | 1.62 | 3.26 | 1.3 | 2.77 | 1.83 | 5.9 | 1.9 | 3.51 | 1.5 | 3.11 | 2.17 | 4.95 | 1.8 | 4.28
4 | COc1cc2c3c(n(C)c(=O)c2cc1OC)-c1cc2c(cc1/C3=C\CCN)OCO2 | 0.583 | 17.6 | < 0.01 | 1.62 | 1.71 | 13.5 | 0.239 | 2.07 | 0.138 | > 34.8 | 0.882 | > 53.6 | 0.16 | 22.8 | 0.975 | > 100 | 0.0397 | 1.5 | 0.324 | 2.94
5 | O=c1c2sccc2n(CC2COc3ccccc3O2)c(=O)n1O (stereo not given) | 11.1 | > 100 | 3.76 | > 100 | 35.3 | > 100 | 20 | 81.5 | 24.1 | > 100 | 15.4 | > 100 | 7.52 | > 100 | 36.8 | > 100 | 4.1 | > 100 | 18.2 | > 100
6 | CCCCCCCCC/C=C1\CCC(CN2CCOCC2)C1=O (stereo not given) |  | 13 |  | 5.43 |  | 33.9 |  | 19 |  | 8.7 |  | 14.8 |  | 3.73 |  | 11.2 |  | 15.6 |  | 4.25
7 | O=C1NCC2(CCN(CCCC3(c4ccc(F)cc4)OCCO3)CC2)N1c1ccccc1 |  | > 100 |  | > 100 |  | > 100 |  | > 100 |  | > 100 |  | > 100 |  | > 100 |  | > 100 |  | > 100 |  | > 100
8 | COc1cccc(-c2nc(-c3ccc(NC(=O)C(C)C)cc3)[nH]c2-c2ccnc(Br)c2)c1 | 3.31 | > 100 | 3.52 | > 100 | 2.43 | 8.01 | 2.65 | 9.26 | 3.07 | > 100 | 3.55 | > 100 | 2.08 | > 100 | 2.81 | 7.59 | 3.07 | > 100 | 3.02 | > 100
9 | COc1ccc(/C=C(/C#N)n2nnc3cccc(F)c32)cc1 | 1.93 | > 100 | 0.399 | > 100 | 2.37 | > 100 | 0.69 | > 100 | 0.41 | > 100 | 0.759 | 16.3 | 1.79 | > 100 | 0.811 | > 100 | 0.352 | > 100 | 1.63 | > 100
